Key:
[1] = system: Smad2/Smad3 phosphorylation; experiment: Phospho-Smad2/3 Inhibition Assay (western blot), Panc-1; format: cell-based, human; details: at 10 μM, Panc-1 pancreatic cancer cell line; starred symbols = activation
Procedure, shortened: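 Western blotting of lysates (15-50 μg protein) read phosphorylation of Smad2 Ser465/467 and Smad3 Ser423/425. Before lysis, Panc-1 cells got 1 h of 10 ng/ml TGF-b1 following 3 h compound exposure at 37° C (10 μM final, or serial dilutions for IC50, 0.3% DMSO) after overnight 0.5% FBS starvation.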

[2] = system: IL6; experiment: IL-6 Quantification Assay (ELISA), LPS-stimulated RAW 264.7; format: cell-based; parameters: inhibition: dose or concentration left out as unconfirmed; details: Mus musculus, RAW264.7; read-out: IL-6: % inh.
[3] = system: KRas wild type; experiment: Ras GTP Binding Domain Inhibition Assay (Ras Superfamily Assay); details: for KRas wild type + SOS: % inh.: with SOS; for KRas wild type: % inh.: without SOS
Procedure, shortened: (§1)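 Binding of 100 nM fluorescent GTP (Cy3 or Cy5, 45 min, room temperature) was read after washes from plate-captured His-tagged protein. Beforehand, compounds at 20 μM or in dilution series for IC50 sat 3 h on the protein in Tris buffer pH 7.4 or 7.0 with 1% DMSO, Sos GEF optionally added for the last hour.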

[4] = system: KRas G12D mutant; experiment: as above; details: for KRas G12D mutant + SOS: % inh.: with SOS; for KRas G12D mutant: % inh.: without SOS
Procedure, shortened: as §1

[5] = biological target: T1, Rac-1 (Homo sapiens, UniProt P63000); experiment: as above; details: read-out: Rac-1: % inh.
T1 construct: made in house
Procedure, shortened: as §1

SMILES | % inh of Smad2/3 phosphorylation in Panc-1 [1] | inhibition [2] | KRas wild type + SOS: % inh. ([3]; at 20 μM) | KRas wild type: % inh. ([3]; at 20 μM) | KRas G12D mutant + SOS: % inh. ([4]; at 20 μM) | KRas G12D mutant: % inh. ([4]; at 20 μM) | inhibition at 20 µM [5] | KRas wild type + SOS: % inh. ([3]; 20 μM compound) | KRas wild type: % inh. ([3]; 20 μM compound) | KRas G12D mutant + SOS: % inh. ([4]; 20 μM compound) | KRas G12D mutant: % inh. ([4]; 20 μM compound)
Cc1c(-c2ccn(C)n2)cn2nc(-c3nccn3C)nc(Nc3ccc(N(C)C)cn3)c12 [Compound 227, N5,N5-Dimethyl-N2-(5-methyl-2-(1-methyl-1H-imidazol-2-yl)-6-(1-methyl-1H-pyrazol-3-yl)pyrrolo[2,1-f][1,2,4]triazin-4-yl)pyridine-2,5-diamine] | C (C = 46-75% inhibition) | 50 to 74% | D (D = 76-100% inhibition) | D (D = 76-100% inhibition) | D (D = 76-100% inhibition) | D (D = 76-100% inhibition) | 76 to 100% | – | – | – | –
CO[C@H]1CC[C@H](Nc2nc(-c3nccn3C)nn3cc(-c4ccn(C)n4)c(C(=O)NC4CC4)c23)C1 (racemic) [Compound 182, rac N-Cyclopropyl-4-(((1S,3S)-3-methoxycyclo-pentyl)amino)-2-(1-methyl-1H-imidazol-2-yl)-6-(1-methyl-1H-pyrazol-3-yl)pyrrolo[2,1-f][1,2,4]triazine-5-carboxamide] | A* (A* = 1-25% activation) | 25 to 49% | – | – | – | – | 1 to 25% | A (A = 1-25% inhibition) | A (A = 1-25% inhibition) | 0 (0 = 0% inhibition) | A (A = 1-25% inhibition)
Cn1ccnc1-c1nc(O)c2c(-c3ccccc3)c(-c3cccnc3)cn2n1 [Compound 189, 2-(1-Methyl-1H-imidazol-2-yl)-5-phenyl-6-(pyridin-3-yl)pyrrolo[2,1-f][1,2,4]triazin-4-ol] | B (B = 26-45% inhibition) | 0% | 0 (0 = 0% inhibition) | 0 (0 = 0% inhibition) | A (A = 1-25% inhibition) | A (A = 1-25% inhibition) | 1 to 25% | – | – | – | –
Cc1c(-c2ccn(C)n2)cn2nc(-c3nccn3C)nc(O)c12 [Compound 172, 5-Methyl-2-(1-methyl-1H-imidazol-2-yl)-6-(1-methyl-1H-pyrazol-3-yl)pyrrolo[2,1-f][1,2,4]triazin-4-ol] | A (A = 1-25% inhibition) | 1 to 24% | – | – | – | – | 26 to 49% | B (B = 26-49% inhibition) | B (B = 26-49% inhibition) | B (B = 26-49% inhibition) | B (B = 26-49% inhibition)
Cc1c(-c2ccn(C)n2)cn2nc(-c3nccn3C)nc(Nc3ccc(N4CCCC4)cn3)c12 [Compound 228, 5-Methyl-2-(1-methyl-1H-imidazol-2-yl)-6-(1-methyl-1H-pyrazol-3-yl)-N-(5-(pyrrolidin-1-yl)pyridin-2-yl)pyrrolo[2,1-f][1,2,4]triazin-4-amine] | 0 (0 = 0% inhibition) | 25 to 49% | C (C = 50-75% inhibition) | C (C = 50-75% inhibition) | C (C = 50-75% inhibition) | D (D = 76-100% inhibition) | 76 to 100% | – | – | – | –
COc1cc(Nc2nc(-c3nccn3C)nn3cc(-c4ccn(C)n4)c(C)c23)ncc1C1CC1 [Compound 238, N-(5-Cyclopropyl-4-methoxypyridin-2-yl)-5-methyl-2-(1-methyl-1H-imidazol-2-yl)-6-(1-methyl-1H-pyrazol-3-yl)pyrrolo[2,1-f][1,2,4]triazin-4-amine] | 0 (0 = 0% inhibition) | 75 to 100% | D (D = 76-100% inhibition) | D (D = 76-100% inhibition) | D (D = 76-100% inhibition) | D (D = 76-100% inhibition) | 76 to 100% | – | – | – | –
Cc1c(-c2ccn(C)n2)cn2nc(-c3nccn3C)nc(Nc3cc(OCCNC(=O)CCCC[C@H]4SC[C@H]5NC(=O)N[C@H]54)ccn3)c12 [Compound 186, N-(2-((2-((5-Methyl-2-(1-methyl-1H-imidazol-2-yl)-6-(1-methyl-1H-pyrazol-3-yl)pyrrolo[2,1-f][1,2,4]triazin-4-yl)amino)pyridin-4-yl)oxy)ethyl)-5-((3aR,4R,6aS)-2-oxohexahydro-1H-thieno[3,4-d]imidazol-4-yl)pentanamide] | D* (D* = 76-100% activation) | 1 to 24% | – | – | – | – | 76 to 100% | D (D = 76-100% inhibition) | D (D = 76-100% inhibition) | D (D = 76-100% inhibition) | D (D = 76-100% inhibition)
Cc1c(-c2ccn(C)n2)cn2nc(-c3nccn3C)nc(Nc3cc(N4CCOCC4)ccn3)c12 [Compound 222, 5-Methyl-2-(1-methyl-1H-imidazol-2-yl)-6-(1-methyl-1H-pyrazol-3-yl)-N-(4-morpholinopyridin-2-yl)pyrrolo[2,1-f][1,2,4]triazin-4-amine] | A* (A* = 1-25% activation) | 50 to 74% | D (D = 76-100% inhibition) | D (D = 76-100% inhibition) | D (D = 76-100% inhibition) | D (D = 76-100% inhibition) | 76 to 100% | – | – | – | –
CO[C@H]1C[C@H](Nc2nc(-c3nccn3C)nn3cc(-c4cccc5c4CCO5)c(-c4ccccc4)c23)C1 [Compound 210, 6-(2,3-Dihydrobenzofuran-4-yl)-N-((1r,3r)-3-methoxycyclobutyl)-2-(1-methyl-1H-imidazol-2-yl)-5-phenylpyrrolo[2,1-f][1,2,4]triazin-4-amine] | D (D = 76-100% inhibition) | 75 to 100% | 0 (0 = 0% inhibition) | A (A = 1-25% inhibition) | A (A = 1-25% inhibition) | A (A = 1-25% inhibition) | 1 to 25% | – | – | – | –

— patent US12459951B2, “Compounds that interact with RAS superfamily proteins for treatment of cancers, inflammatory diseases, rasopathies, and fibrotic disease” (SHY Therapeutics, LLC, priority 2022, dated 2025)
